According to ChEMBL document CHEMBL3044623, “Feeding cessation effects of chlorantraniliprole, a new anthranilic diamide insecticide, in comparison with several insecticides in distinct chemical classes and mode-of-action groups” (2009):

Columns and labels:
Assay type in all cases: functional
Plutella xylostella [1] = assay: Antifeedant activity against third-instar larval stage of Plutella xylostella (diamondback moth) infested compound-treated leaf assessed as time required to stop feeding at 3341 mg a.i/L after 48 hr by leaf disk assay (reference value: > 2880 min)
Spodoptera exigua [2] = assay: Antifeedant activity against third-instar larval stage of Spodoptera exigua infested compound-treated leaf assessed as reduction in feeding damage at 3341 mg a.i/L after 48 hr by leaf disk assay relative to untreated control; design: scale not given: the % may be the effect or the level left
Plutella xylostella [3] = assay: Antifeedant activity against third-instar larval stage of Plutella xylostella (diamondback moth) infested compound-treated leaf assessed as reduction in feeding damage at 3341 mg a.i/L after 48 hr by leaf disk assay relative to untreated control; design: scale not given: the % may be the effect or the level left
Trichoplusia ni [4] = assay: Antifeedant activity against third-instar larval stage of Trichoplusia ni (cabbage looper) infested compound-treated leaf assessed as reduction in feeding damage at 3341 mg a.i/L after 48 hr by leaf disk assay relative to untreated control; design: scale not given: the % may be the effect or the level left
Helicoverpa zea [5] = assay: Antifeedant activity against third-instar larval stage of Helicoverpa zea (corn earworm) infested compound-treated leaf assessed as reduction in feeding damage at 3341 mg a.i/L after 48 hr by leaf disk assay relative to untreated control; design: scale not given: the % may be the effect or the level left
Helicoverpa zea [6] = assay: Antifeedant activity against third-instar larval stage of Helicoverpa zea (corn earworm) infested compound-treated leaf assessed as time required to stop feeding at 3341 mg a.i/L after 48 hr by leaf disk assay (reference value: > 2880 min)
Spodoptera exigua [7] = assay: Antifeedant activity against third-instar larval stage of Spodoptera exigua infested compound-treated leaf assessed as time required to stop feeding at 3341 mg a.i/L after 48 hr by leaf disk assay (reference value: > 2880 min)
Trichoplusia ni [8] = assay: Antifeedant activity against third-instar larval stage of Trichoplusia ni (cabbage looper) infested compound-treated leaf assessed as time required to stop feeding at 3341 mg a.i/L after 48 hr by leaf disk assay (reference value: > 2880 min)

CNC(=O)ON=C(C)SC [METHOMYL]
Time (Plutella xylostella [1]): 3.6 min | Activity (Spodoptera exigua [2]): 99.8% | Activity (Plutella xylostella [3]): 98.5% | Activity (Trichoplusia ni [4]): 99.9% | Activity (Helicoverpa zea [5]): 99.7% | Time (Helicoverpa zea [6]): 3.8 min | Time (Spodoptera exigua [7]): 5.9 min | Time (Trichoplusia ni [8]): 4.2 min
